From patent publication USRE38551E1, “Anticonvulsant enantiomeric amino acid derivatives” (priority 1996, dated 2004)
pIC50: −log10 of the molar value.

Key:
[1] = rotorod neurologic toxicity test, mice (ip); type: in vivo; details: male, Carthworth Farms No. 1, in vivo, ip; mouse, i.p., rotorod test at peak effect (Table 6); read-out: MOUSE ED50 Neurotox
Description: (§1) Compounds were screened for anticonvulsant activity in both male albino Carthworth Farms No. 1 mice (ip route) and male albino Sprague Dawley rats [oral (po) route]. Activity was established using the electrical (maximal electroshock or MES) test. In the MES test, a drop of electrolyte solution with anesthetic (0.5% butacaine hemisulfate in 0.9% sodium chloride) was used in the eyes of the animals prior to positioning the corneal electrodes and delivery of current. […] Protection endpoints were defined as the abolition of the hind limb tonic extensor component of the induced seizure. In mice, effects of compounds on forced spontaneous motor activity were determined using the rotorod test. […] Normally under these conditions, mice maintain their balance almost indefinitely. In rats, motor impairment is assessed by observing for overt evidence of ataxia, abnormal gait and stance, and/or loss of placing response and muscle tone. In the mouse identification screening study all compounds were given at three dose levels (30, 100, 300 mg/kg) and two time periods (0.5 hours, 4 hours). Typically, in the MES seizures test one animal was tested at 30 mg/kg and 300 mg/kg, and three animals at 100 mg/kg. In the rotored toxicity test four animals were tested at 30 mg/kg, and 300 mg/kg, and eight animals at 100 mg/kg.
(§2) The quantitative determination of the median effective (ED50) and toxic doses (TD50) was conducted at previously calculated times of peak effect. Groups of at least eight animals were tested using different doses of test compound until at least two points wee determined between 100 and 0% protection and minimal motor impairment. The dose of candidate substance required to produce the defined end-point in 50% of the animals in each test and the 95% confidence interval was calculated.

[2] = system: motor impairment (rotorod test); test: rotorod neurologic toxicity test, mice (ip); type: in vivo; details: mice, ip, rotorod test, at time of peak effect
Description: as §1, §2

[3] = motor impairment (ataxia, gait, stance) observation, rats (po); type: in vivo; details: male, Sprague Dawley, in vivo, rat
Description: (§3) Compounds were screened for anticonvulsant activity in both male albino Carthworth Farms No. 1 mice (ip route) and male albino Sprague Dawley rats [oral (po) route]. Activity was established using the electrical (maximal electroshock or MES) test. In the MES test, a drop of electrolyte solution with anesthetic (0.5% butacaine hemisulfate in 0.9% sodium chloride) was used in the eyes of the animals prior to positioning the corneal electrodes and delivery of current. A 60 cycle alternating current was administered for 0.2 sec. in both species, 50 mA in mice and 150 mA in rats. Protection endpoints were defined as the abolition of the hind limb tonic extensor component of the induced seizure. In mice, effects of compounds on forced spontaneous motor activity were determined using the rotorod test. […] Normally under these conditions, mice maintain their balance almost indefinitely. In rats, motor impairment is assessed by observing for overt evidence of ataxia, abnormal gait and stance, and/or loss of placing response and muscle tone. In the mouse identification screening study all compounds were given at three dose levels (30, 100, 300 mg/kg) and two time periods (0.5 hours, 4 hours). Typically, in the MES seizures test one animal was tested at 30 mg/kg and 300 mg/kg, and three animals at 100 mg/kg. In the rotored toxicity test four animals were tested at 30 mg/kg, and 300 mg/kg, and eight animals at 100 mg/kg.
as §2

[4] = system: maximal electroshock (MES) induced seizure; test: 5-day chronic treatment tolerance study (MES test); type: in vivo; details: rats
Experimental: Compound C, i.e., N-acetyl-D, L-phenylglycine N-benzylamide was subjected to 5-day chronic treatment on anticonvulsant activity (maximal electroshock). 3 groups of 8 animals each were treated as follows. One group was given the MES ED50 of the test drug for 5 days; the second group was given the requisite volume of the vehicle (0.04 ml/10 g body wt.) for 4 days and a single dose (MES ED50) of the test drug on day 5; and the third group was given the requisite volume of the vehicle daily for 5 days. At the time of peak effect of the candidate substance on day 5, all groups were subjected to the MES test and the number of animals protected recorded. Seizure components of the unprotected animals were timed to the nearest 10th of a second and the extensor/flexor (E/F) ratio, S.E., and p value determined. Since extensor duration decreases and flexor duration increases as a maximal seizure is attenuated, the E/F ratio provides a measure of seizure severity.

hexobarbital sleep time = hexobarbital sleep time test; type: in vivo; details: rats
Experimental: All rats subjected to the 5-day tolerance studies were maintained in their home cage for 24 hours and then subjected to the hexobarbital sleep time test (day 6). Each rat in each of the 3 groups was given 100 mg/kg of hexobarbital (i.p.) and the sleep time measured to the nearest minute. The mean sleep time and S.E. for each group were calculated.

[5] = molecular target: p-nitroanisole O-demethylase; test: in vitro p-nitroanisole O-demethylase inhibition; type: biochemical; details: listed as Compound A, read-out: I50, in vitro p-nitroanisole O-demethylase activity
Description: This interpretation is supported by the similar effectiveness of Compound A by the MES test, the increased hexobarbital sleep time, and the unaltered liver microsomal enzyme activity. In view of the increased hexobarbital sleep time in the 5-day treated animals, it was thought important to determine the in vitro effect of Compound A on p-nitroanisole O-demethylase activity. […] This may indicate that the potentiation of hexobarbital sleep time is central and not peripheral.

motor impairment = motor impairment (ataxia, gait, stance) observation, rats (po); type: in vivo
Description: as §3, §2

For `CC(=O)NC(C)C(=O)NCc1ccccc1` (racemic) [compound 1, N-Acetyl-D,L-alanine-N′-benzylamide], the ED50 [1] was 454 mg/kg, the “tox, TD50” value [2] was 454 [0.5] mg/kg and the ED50 ([3]; oral (Table 6), read-out: RAT ED50 Neurotox) was greater than 1000 mg/kg. The TD50 ([3]; po, at time of peak effect, read-out: tox, TD50) was greater than 1000 mg/kg, the “tolerance to the anticonvulsant effects (MES Test)” value ([4]; 5 daily doses of 48 mg/kg) was “does not induce tolerance” and the “animals protected, MES test” value ([4]; chronically treated group, 5 daily doses of 48 mg/kg) was 3/8. The “animals protected, MES test” value ([4]; single dose acute control group, MES ED50 (48 mg/kg)) was 4/8, the hexobarbital sleep time (hexobarbital sleep time; 5-day treated (48 mg/kg)) was 44.4 ± 1.9 min and the hexobarbital sleep time (hexobarbital sleep time; acute control (single dose 48 mg/kg)) was 34.3 ± 1.1 min. The pIC50 [5] was 2.30.

In the case of `COC[C@@H](NC(C)=O)C(=O)NCc1ccccc1` [Ex. 1, 2, (R)-N-Benzyl-2-Acetamide-3-methoxypropionamide], the “RAT ED50 Neurotox” value (motor impairment; oral (Table 6)) was greater than 500 mg/kg and the “tox, TD50” value (motor impairment; rat, po, at time of peak effect) was >500 [0.5] mg/kg.
